Results: patent US9717796B1, “Heat sterilizeable, premixed, ready to use dexmedetomidine solution packaged in a flexible plastic container” (SLYPHARMA, LLC, priority 2016, dated 2017)
Where two headings read alike, the source gives them in different places.

Legend:
[1] = cited from earlier work
[2] = remark: listed apart in the source
Method: A composition was prepared containing 4.0 μg Dexmedetomidine and 50 mg dextrose to adjust tonicity with sufficient water to bring the total volume to 1 mL.

[3] = DEHP used as plasticizer in PVC bags; cited from earlier work

In the case of `Cc1cccc([C@H](C)c2cnc[nH]2)c1C` [dexmedetomidine, (S)-4-[1-(2,3-dimethylphenyl)ethyl]-3H-imidazole], the potency loss ([1]; CR3 elastomer copolyester ether bags and PVC bags, autoclaving) is given as 20%, the “drug recovered in MeOH rinse of emptied bags” value ([1]; CR3 elastomer copolyester ether bags) is given as “Nearly all” and the “drug recovered in MeOH rinse of emptied bags” value ([1]; PVC bags) is given as 1%. For the same compound, the “total percent of impurities” value ([1]; autoclaved premixed composition in PVC and CR3 bags) was “less than 20%”, the drug loss ([1]; formulation with a buffer system, plastic bags) was roughly 10% and the “dexmedetomidine lost through adsorption” value ([1]; premixed solution in plastic materials) was “up to 20%”. For the same compound, the “dexmedetomidine retained after autoclaving in moist steam” value (5.5 mg/mL sodium chloride and 28 gram/mL sodium acetate and 320 mg/mL glacial acetic acid as buffer) was 90.1%, the “retention of the dexmedetomidine after autoclaving in moist steam” value (buffer (28 g/mL sodium acetate and 320 mg/mL glacial acetic acid) with dextrose as tonicity adjusting agent, Nexcel bag) was 99.4% and the “retention of the dexmedetomidine after autoclaving in moist steam” value (buffer (28 g/mL sodium acetate and 320 mg/mL glacial acetic acid) with sucrose as tonicity adjusting agent, Nexcel bag) was 99.0%. For the same compound, the “dexmedetomidine retained after autoclaving in moist steam” value (solution comprising 9 mg/mL sodium chloride, Nexcel bag) was 93%, the “time the solution will be stable at room temperature” value ([2]; Example 1 solution (dextrose) in Nexcel bag, extrapolated from the accelerated test) was “about 24 months” and the “adsorption or absorption by the ethylene-vinyl acetate copolymer inner-most bag layer” value ([2]; Example 1 solution, Nexcel bag, storage tests) was “not adsorbed or absorbed”. The “solubility in DEHP” value [3] was “soluble”.
